Values of other authors in patent publication US20120058950A1, “DETECTION OF NEUROPEPTIDES ASSOCIATED WITH PELVIC PAIN DISORDERS AND USES THEREOF” (University of Vermont and State Agricultural College, priority 2003, published 2012).
No end group written: not given here.

Pituitary Adenylate Cyclase Activating Peptide (HSDGIFTDSYSRYRKQMAVKKYLAAVLGKRYKQRVKNK; ends and bridges not checked; UniProt P18509 132-169, looked up) [PACAP]
activity when infused near the bladder (bladder): has activity when infused near the bladder | bladder activity in vitro (contraction of detrusor, alteration of electrically or cholinergically elicited contractions) (detrusor): no bladder activity in vitro
